Laboratory results as given in patent US6372693B1, “Substituted 2-(3-alkenyl-benzoyl)-cyclohexane-1,3-diones” (BASF Aktiengesellschaft, priority 1997, dated 2002).

Tests used:
Experiment in all cases: greenhouse herbicidal test, post-emergence treatment
Type in all cases: in vivo
Sinapis alba = details: 0.5 or 0.25 kg/ha a.s., Sinapis alba (white mustard)
Protocol: (§1) The culture containers used were plastic flowerpots containing loamy sand with approximately 3.0% of humus as substrate. The seeds of the test plants were sown separately for each species.
(§2) For the purposes of post-emergence treatment, the test plants were grown to a plant height of from 3 to 15 cm, depending on the plant habit, and only then treated with the active ingredients which had been suspended or emulsified in water. To this end, the test plants were either sown directly and grown in the same containers, or they were first grown separately as seedlings and transplanted into the test containers a few days prior to treatment. The rate of application for the post-emergence treatment was 0.5 or 0.25 kg/ha a.s.
(§3) Depending on the species, the plants were kept at from 10-25° C. and 20-35° C., respectively. The test period extended over 2 to 4 weeks. During this time, the plants were tended, and their response to the individual treatments was evaluated.
(§4) Evaluation was carried out using a scale of from 0 to 100. 100 means no emergence of the plants, or complete destruction of at least the aerial parts, and 0 means no damage or normal course of growth.
(§5) The plants used in the greenhouse experiments belonged to the following species: […]

Chenopodium album = details: 0.5 or 0.25 kg/ha a.s., Chenopodium album (lambsquarters)
Protocol: as §1, §2, §3, §4, §5

Solanum nigrum = details: 0.5 or 0.25 kg/ha a.s., Solanum nigrum (black nightshade)
Protocol: as §1, §2, §3, §4, §5

Polygonum persicaria = details: 0.5 or 0.25 kg/ha a.s., Polygonum persicaria (ladysthumb)
Protocol: as §1, §2, §3, §4, §5

Measured: herbicidal action (control of the weed)

CC=Cc1c(Cl)ccc(C(=O)C2C(=O)CCCC2=O)c1Cl [Compound 2.1, 2-[2′,4′-Dichloro-3′-(prop-1″-en-1″-yl)benzoyl]-1,3-cyclo-hexanedione]
very good control: all assays above
